Read-outs that look alike come from different tables or passages of the source.

These results are taken from patent US7989464B2, “mGluR1 antagonists as therapeutic agents” (Schering Corporation, priority 2004, dated 2011).

In this assay the target is T1, hmGluR1 receptor (Homo sapiens, UniProt Q13255).
T1 construct: expressed in transfected cells
Put plainly: IC50 determination: intracellular calcium mobilization (FLIPR) upon Quisqualate stimulation in CHO cells stably expressing hmGluR1. The assay is classed as cell-based. Conditions: against Quisqualate 1 μM (EC80). The essentials: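 CHO cells stably expressing hmGluR1 were kept overnight in DMEM high glucose with GPT and 1 mM pyruvate, then loaded 2 h with Calcium 3 dye.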
On the technique in general: A change in cytosolic calcium serves as a functional read-out for many receptors and channels.

Setting [1] is: class symbols, read-out: mGIuR 1 IC50.
The mark [2] stands for this setting: FLIPR calcium mobilization, read-out: IC50 Class.
Where [3] appears, read: FLIPR calcium mobilization, read-out: mGluR1 IC50.

T1 sequence (Q13255 19-1194): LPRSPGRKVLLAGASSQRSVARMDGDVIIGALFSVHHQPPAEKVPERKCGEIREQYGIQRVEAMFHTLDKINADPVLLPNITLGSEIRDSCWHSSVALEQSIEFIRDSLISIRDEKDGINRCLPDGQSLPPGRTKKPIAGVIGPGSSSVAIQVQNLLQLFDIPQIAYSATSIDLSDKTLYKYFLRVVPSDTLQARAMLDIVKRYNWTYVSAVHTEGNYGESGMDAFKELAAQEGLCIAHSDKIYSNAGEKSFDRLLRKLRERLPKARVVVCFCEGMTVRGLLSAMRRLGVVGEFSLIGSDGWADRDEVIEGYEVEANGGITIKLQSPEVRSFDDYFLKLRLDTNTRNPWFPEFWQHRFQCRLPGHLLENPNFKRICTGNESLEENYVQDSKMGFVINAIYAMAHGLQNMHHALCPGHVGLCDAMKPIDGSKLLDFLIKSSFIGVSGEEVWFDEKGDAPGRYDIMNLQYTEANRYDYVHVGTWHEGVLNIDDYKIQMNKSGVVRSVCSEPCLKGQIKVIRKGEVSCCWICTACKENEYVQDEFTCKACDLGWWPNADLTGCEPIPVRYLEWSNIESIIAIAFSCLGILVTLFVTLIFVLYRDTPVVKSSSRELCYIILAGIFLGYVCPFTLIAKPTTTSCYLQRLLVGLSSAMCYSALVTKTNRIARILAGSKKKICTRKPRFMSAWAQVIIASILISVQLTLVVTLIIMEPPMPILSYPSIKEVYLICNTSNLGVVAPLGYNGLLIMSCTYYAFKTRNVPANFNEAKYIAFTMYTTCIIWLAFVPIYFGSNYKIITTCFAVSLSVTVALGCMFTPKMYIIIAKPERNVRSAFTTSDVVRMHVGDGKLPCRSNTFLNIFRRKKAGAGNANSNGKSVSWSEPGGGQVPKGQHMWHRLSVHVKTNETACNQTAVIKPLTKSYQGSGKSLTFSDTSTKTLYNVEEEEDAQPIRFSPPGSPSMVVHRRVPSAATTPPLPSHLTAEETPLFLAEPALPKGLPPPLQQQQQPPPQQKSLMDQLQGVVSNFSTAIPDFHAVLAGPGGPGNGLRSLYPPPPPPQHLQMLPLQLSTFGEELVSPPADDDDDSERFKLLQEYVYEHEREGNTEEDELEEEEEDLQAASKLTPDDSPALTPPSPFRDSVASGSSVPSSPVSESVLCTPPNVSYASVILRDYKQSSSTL

With `CN(C)c1c(Cl)cnc2sc3c(=O)n(C4CCCCC4)cnc3c12` [compound 41], under setting [1], the IC50 is 0.05 to 0.15 µM. On to `Cc1cc(N(C)C)c2c(n1)sc1c(=O)n(-c3cccnc3)cnc12` [7DD], for which the IC50 under setting [1] was in the range of 0.15 to 1 µM.

As to `COc1ccc(-n2cnc3c(sc4nccc(N5CCC5)c43)c2=O)cc1` [28AM], under setting [1], the IC50 was in the range of 0.05 to 0.15 µM. As to `Cc1ccc(-n2cnc3c(sc4nccc(NCC(F)(F)F)c43)c2=O)cc1` [28AU], under setting [1], the IC50 was less than 0.05 µM. Turning to `CNc1ccnc2sc3c(=O)n(-c4cccc(F)c4)cnc3c12` [28CO], the concentration for half-maximal inhibition (IC50) under setting [2] was less than 0.05 µM. `O=c1c2sc3nccc(NC4CCC4)c3c2ncn1C1CCCCC1` [28W]: the half-inhibitory concentration (IC50) under setting [1] was in the range of 0.15 to 1 µM. For the compound `CNc1ncnc2sc3c(=O)n(-c4ccc(OC)cc4F)cnc3c12` [95BI], the IC50 under setting [2] was less than 0.05 µM and the IC50 under setting [3] came to 0.0283 µM. `C#CCOc1nncc2sc3c(=O)n(-c4ccc(C)cc4)cnc3c12` [167E]: under setting [2], the IC50 was more than 1 µM.

Regarding `CN(C)c1ccnc2sc3c(=O)n(-c4ccc(O)cc4)cnc3c12` [7AK], the IC50 under setting [1] was less than 0.05 µM. Consider `O=c1c2sc3nccc(NC4CCCCC4)c3c2ncn1-c1ccccc1` [28D], for which the half-inhibitory concentration (IC50) under setting [1] was more than 1 µM. With `CCOc1cnnc2sc3c(=O)n(-c4ccc(C)cc4)cnc3c12` [161A], the half-maximal inhibitory concentration (IC50) under setting [2] was more than 1 µM. On to `O=C(Nc1ccnc2sc3c(=O)n(C4CCCCC4)cnc3c12)C1CCC1` [73D], for which the IC50 under setting [1] was more than 1 µM.

As to `Cc1ccc(-n2cnc3c(sc4ncc(C(=O)N5CCNCC5)cc43)c2=O)cc1` [205B], the IC50 under setting [2] was more than 1 µM. `CN(C)c1ccnc2sc3c(=O)n(-c4cccs4)cnc3c12` [15AB]: the half-inhibitory concentration (IC50) under setting [1] was less than 0.05 µM. Same read-out and setting: the figure for `COc1ccc(-n2cnc3c(sc4nccc(N(C)C)c43)c2=O)cc1OC` [7AD] is more than 1 µM; for `CN(C)c1ccnc2sc3c(=O)n(-c4cc[nH]n4)cnc3c12` [15W] it is more than 1 µM. Same read-out and setting: the figure for `CN(C)c1ccnc2sc3c(=O)n(CCO)cnc3c12` [15A] is more than 1 µM. Consider `COc1ccc(-n2cnc3c(sc4ncc(F)c(N(C)C)c43)c2=O)cc1` [compound 192], for which the half-inhibitory concentration (IC50) under setting [2] was less than 0.05 µM. For `CCOC(=O)c1cnc2sc3c(=O)n(-c4ccc(OC)cc4)cnc3c2c1` [144B], under setting [2], the 50% inhibitory concentration (IC50) is more than 1 µM. For the compound `Cc1ccc(-n2cnc3c(sc4nccc(N(C)C)c43)c2=O)cc1Cl` [7DG], the 50% inhibitory concentration (IC50) under setting [1] was less than 0.05 µM. With `C=C(C)CNc1ncnc2sc3c(=O)n(-c4ccc(Br)cc4)cnc3c12` [95FA], the IC50 under setting [2] is less than 0.05 µM. Same read-out and setting: the value for `Cc1ccc(-n2cnc3c(sc4nccc(N5CC[C@H](O)C5)c43)c2=O)cc1` [28CU] was more than 1 µM. As for `CCCCc1nc2c(sc3nccc(N(C)C)c32)c(=O)n1-c1ccc(OC)cc1` [116G], under setting [1], the IC50 is 0.15 to 1 µM.

In the case of `CN(C)c1cncc2sc3c(=O)n(C4CCCCC4)cnc3c12` [37A], the 50% inhibitory concentration (IC50) under setting [1] lay within 0.15 to 1 µM. On the same count and under the same terms, the figure for `CN(C)c1ncnc2sc3c(=O)n(-c4ccc5c(c4)CCO5)cnc3c12` [95E] is less than 0.05 µM. On the same count and under the same terms, the value for `O=c1c2sc3nccc(N4CCC(O)CC4)c3c2ncn1C1CCCCC1` [28AF] was more than 1 µM. With `C#CCNc1ccnc2sc3c(=O)n(-c4ccc(Br)cc4)cnc3c12` [28DP], the half-maximal inhibitory concentration (IC50) runs as follows: under setting [2], less than 0.05 µM; under setting [3], 0.00175 µM. As to `COc1ccc(-n2cnc3c(sc4nc(N)cc(N)c43)c2=O)cc1` [59H], the IC50 under setting [2] is less than 0.05 µM. Regarding `CCNc1ccnc2sc3c(=O)n(-c4ccc(C)cc4)cnc3c12` [131D], the IC50 under setting [1] was less than 0.05 µM. With `O=c1c2sc3nccc(NCCO)c3c2ncn1-c1ccc2occc2c1` [28BD], the IC50 under setting [2] is less than 0.05 µM. As for `CNc1c(Br)cnc2sc3c(=O)n(-c4ccc(OC)cc4)cnc3c12` [compound 152], the half-maximal inhibitory concentration (IC50) under setting [1] was less than 0.05 µM. Consider `CN(C)c1ccnc2sc3c(=O)n(-c4cccc(F)c4)cnc3c12` [28CP], for which the concentration for half-maximal inhibition (IC50) under setting [2] is less than 0.05 µM. Same read-out and setting: the figure for `CON(C)c1ccnc2sc3c(=O)n(-c4ccc(Cl)cc4)cnc3c12` [28DN] is less than 0.05 µM.

Consider `O=c1c2sc3nc(-c4cccs4)cc(C(F)(F)F)c3c2ncn1-c1ccccc1` [P-14], for which, under setting [1], the IC50 lay in the range of 0.15 to 1 µM. For `O=c1c2sc3ncnc(NC4CC4)c3c2ncn1-c1ccc2occc2c1` [95AV], the IC50 under setting [2] was less than 0.05 µM. In the case of `CN(C)c1ccnc2sc3c(=O)n(-c4ccc5ncoc5c4)cnc3c12` [7BS], the IC50 under setting [1] was less than 0.05 µM. Take `CNc1ncnc2sc3c(=O)n(-c4ccc(OC)c(F)c4)cnc3c12` [95BF]: the IC50 under setting [2] is less than 0.05 µM. Regarding `CN(C)c1ccnc2sc3c(=O)n(-c4ccc5nc[nH]c5c4)cnc3c12` [7AW], the IC50 under setting [1] was 0.05 to 0.15 µM.

Turning to `C#CC(C)Nc1ccnc2sc3c(=O)n(-c4ccc(OC)cc4)cnc3c12` (stereo not shown) [28FA], the 50% inhibitory concentration (IC50) under setting [2] lay in the range of 0.15 to 1 µM. The same measure, in the same setting: the value for `O=c1c2sc3nccc(NCCCO)c3c2ncn1-c1ccc2c(c1)CCO2` [28CJ] was less than 0.05 µM. In the case of `C#CCn1cnc2c(sc3nccc(N(C)C)c32)c1=O` [7BH], the IC50 under setting [1] is more than 1 µM. As to `O=c1c2sc3nccc(N4CCC[C@H]4CO)c3c2ncn1-c1ccc(Cl)cc1` [28GM], the IC50 under setting [2] was more than 1 µM. The same measure, in the same setting: the figure for `CN(C)c1cccc2sc3c(=O)n(-c4ccccc4F)cnc3c12` [103L] is more than 1 µM. As for `CN(C)c1c(C#N)cnc2sc3c(=O)n(C4CCCCC4)cnc3c12` [compound 46], the IC50 under setting [1] is less than 0.05 µM. On to `CN(C)c1ccnc2sc3c(=O)n(-c4ccc5nsnc5c4)cnc3c12` [7BN], for which, under setting [1], the half-inhibitory concentration (IC50) is less than 0.05 µM. Same read-out and setting: the figure for `CN(C)c1ccnc2sc3c(=O)n(-c4ccsc4)cnc3c12` [15AA] is less than 0.05 µM. Regarding `CNc1ccnc2sc3c(=O)n(-c4ccc5ncsc5c4)cnc3c12` [7BZ], the half-inhibitory concentration (IC50) under setting [1] is less than 0.05 µM.

Turning to `COc1ccc(-n2cnc3c(sc4nc(Cl)cc(OC)c43)c2=O)cc1` [57B], the half-inhibitory concentration (IC50) under setting [2] is more than 1 µM. Turning to `CCNc1ncnc2sc3c(=O)n(-c4ccc(C)nc4)cnc3c12` [95AB], the IC50 under setting [1] fell in the range of 0.15 to 1 µM.

As to `CCN(C)c1ccnc2sc3c(=O)n(-c4ccc(OC)c(F)c4)cnc3c12` [28IA], the concentration for half-maximal inhibition (IC50) under setting [2] was less than 0.05 µM. In the case of `Cc1ccc(-n2cnc3c(sc4ncc(I)c(N)c43)c2=O)cc1` [compound 175], the IC50 by setting is: under setting [2], less than 0.05 µM; under setting [3], 0.00076 µM.

In the case of `CCOC(=O)c1cc2c(nc1C(F)(F)F)sc1c(=O)n(-c3ccc(C)cc3)cnc12` [144C], the IC50 under setting [2] was more than 1 µM. For the compound `COCCNc1ncnc2sc3c(=O)n(-c4ccc(C)cc4)cnc3c12` [95DJ], the IC50 under setting [2] is less than 0.05 µM.

Take `C=CCN(C)c1ccnc2sc3c(=O)n(-c4ccc(Br)cc4)cnc3c12` [28EB]: the IC50 under setting [2] lay in the range of 0.05 to 0.15 µM. For the compound `CN(C)c1ccnc2c1c1ncn(-c3ccc(Cl)cc3)c(=O)c1n2C` [134F], under setting [1], the 50% inhibitory concentration (IC50) lay within 0.15 to 1 µM.

Consider `C#CCNc1ncnc2sc3c(=O)n(-c4ccc(OC)cc4F)cnc3c12` [95EJ], for which, under setting [2], the IC50 fell in the range of 0.05 to 0.15 µM. `Cc1ccc(-n2cnc3c(sc4nccc(NCC#N)c43)c2=O)cc1` [28AA]: the concentration for half-maximal inhibition (IC50) runs as follows: under setting [3], 0.00181 µM; under setting [1], less than 0.05 µM. For the compound `CCNc1ncnc2sc3c(=O)n(-c4ccc(SC)cc4)cnc3c12` [95AD], under setting [1], the concentration for half-maximal inhibition (IC50) was less than 0.05 µM. Turning to `COc1ccc(-n2c(C(F)(F)F)nc3c(sc4nccc(N(C)C)c43)c2=O)cc1` [117B], the IC50 under setting [1] lay in the range of 0.15 to 1 µM. On to `COc1ccc(-n2cnc3c(sc4ncnc(OC)c43)c2=O)cc1` [95GO], for which, under setting [2], the IC50 is more than 1 µM.

As for `CNc1ncnc2sc3c(=O)n(-c4ccc(OC)cc4C)cnc3c12` [95BH], the IC50 under setting [2] is less than 0.05 µM. With `COc1ccc(-n2cnc3c(sc4nccc(OC)c43)c2=O)c(F)c1` [25E], the IC50 under setting [2] was more than 1 µM.

`CCNc1ncnc2sc3c(=O)n(-c4ccc(OC)c(F)c4)cnc3c12` [95BL]: the IC50 under setting [2] is less than 0.05 µM.

The term IC50 denotes the point on the concentration scale where inhibition reaches its midpoint.
